Key:
Assay in all cases: Kinase profiling (radioactive filter binding)
Type in all cases: biochemical
Conditions in all cases: 1 uM compound
ABL = ABL (Homo sapiens, UniProt P00519)
Method: (§1) 3A5 and 5E4 were sent to the International Centre for Kinase Profiling at the MRC Protein Phosphorylation and Ubiquitylation Unit for profiling (as described in ref ([17])). Compounds were profiled against 140 kinases using a radioactive ([^33P]ATP) filter binding assay at a concentration of 1 μM. Results were obtained as inhibition of kinase activity and are listed in Supplementary Table 2.

BRK = BRK (Homo sapiens, UniProt Q13882)
Method: as §1

BTK = BTK (Homo sapiens, UniProt Q06187)
Chain of BTK (Q06187 whole entry): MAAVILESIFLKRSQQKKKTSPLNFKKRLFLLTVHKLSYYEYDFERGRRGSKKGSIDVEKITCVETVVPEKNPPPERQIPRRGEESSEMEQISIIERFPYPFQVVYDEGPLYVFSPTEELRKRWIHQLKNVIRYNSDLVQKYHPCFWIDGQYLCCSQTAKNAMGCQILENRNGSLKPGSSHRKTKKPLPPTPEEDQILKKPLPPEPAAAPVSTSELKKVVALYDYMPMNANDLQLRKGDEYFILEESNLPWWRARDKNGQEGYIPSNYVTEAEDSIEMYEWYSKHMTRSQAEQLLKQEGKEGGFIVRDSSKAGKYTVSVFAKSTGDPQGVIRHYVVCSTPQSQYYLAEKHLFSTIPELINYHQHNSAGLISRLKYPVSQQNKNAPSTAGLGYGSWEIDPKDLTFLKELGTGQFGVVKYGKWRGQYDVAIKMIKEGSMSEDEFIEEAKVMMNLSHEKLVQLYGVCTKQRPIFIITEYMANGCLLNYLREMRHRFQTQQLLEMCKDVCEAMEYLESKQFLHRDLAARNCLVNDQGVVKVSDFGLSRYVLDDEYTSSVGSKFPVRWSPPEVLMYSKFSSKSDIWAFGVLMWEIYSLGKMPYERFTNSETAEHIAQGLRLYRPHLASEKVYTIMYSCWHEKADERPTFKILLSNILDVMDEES
Method: as §1

CK1γ2 = CK1γ2 (Homo sapiens, UniProt P78368)
Method: as §1

CSK = CSK (Homo sapiens, UniProt P41240)
Method: as §1

DAPK1 = DAPK1 (Homo sapiens, UniProt P53355)
Method: as §1

EPH-A4 = EPH-A4 (Homo sapiens, UniProt P54764)
Chain of EPH-A4 (P54764 20-986): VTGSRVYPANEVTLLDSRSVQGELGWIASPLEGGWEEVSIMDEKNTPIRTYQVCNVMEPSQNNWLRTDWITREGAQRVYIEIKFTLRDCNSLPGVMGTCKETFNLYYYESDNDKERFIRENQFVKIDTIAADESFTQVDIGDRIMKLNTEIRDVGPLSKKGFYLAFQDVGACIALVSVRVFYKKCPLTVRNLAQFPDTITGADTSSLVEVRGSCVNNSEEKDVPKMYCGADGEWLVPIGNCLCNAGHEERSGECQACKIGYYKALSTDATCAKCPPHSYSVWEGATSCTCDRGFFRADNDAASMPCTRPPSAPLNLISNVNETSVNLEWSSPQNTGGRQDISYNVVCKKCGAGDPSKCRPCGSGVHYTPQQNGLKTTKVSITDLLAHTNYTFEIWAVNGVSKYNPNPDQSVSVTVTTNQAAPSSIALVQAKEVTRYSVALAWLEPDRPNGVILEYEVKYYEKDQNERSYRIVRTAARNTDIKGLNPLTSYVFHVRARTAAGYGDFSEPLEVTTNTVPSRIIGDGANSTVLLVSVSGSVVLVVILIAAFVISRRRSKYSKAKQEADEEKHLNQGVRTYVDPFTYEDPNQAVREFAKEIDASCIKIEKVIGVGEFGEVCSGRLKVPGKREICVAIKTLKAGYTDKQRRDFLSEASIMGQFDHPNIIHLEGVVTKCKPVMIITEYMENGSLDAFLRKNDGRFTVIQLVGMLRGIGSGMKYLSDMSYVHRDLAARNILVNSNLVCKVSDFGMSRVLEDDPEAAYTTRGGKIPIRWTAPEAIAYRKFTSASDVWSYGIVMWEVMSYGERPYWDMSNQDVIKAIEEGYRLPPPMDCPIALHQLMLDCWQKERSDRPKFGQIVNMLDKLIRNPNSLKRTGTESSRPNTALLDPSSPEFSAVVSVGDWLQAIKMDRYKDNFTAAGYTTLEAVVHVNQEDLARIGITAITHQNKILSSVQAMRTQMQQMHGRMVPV
Method: as §1

EPH-B1 = EPH-B1 (Homo sapiens, UniProt P54762)
Method: as §1

EPH-B3 = EPH-B3 (Homo sapiens, UniProt P54753)
Method: as §1

ERK1 = ERK1 (Homo sapiens, UniProt P27361)
Method: as §1

ERK2 = ERK2 (Homo sapiens, UniProt P28482)
Method: as §1

GSK3b = GSK3b (Homo sapiens, UniProt P49841)
Method: as §1

HIPK1 = HIPK1 (Homo sapiens, UniProt Q86Z02)
Method: as §1

HIPK2 = HIPK2 (Homo sapiens, UniProt Q9H2X6)
Method: as §1

HIPK3 = HIPK3 (Homo sapiens, UniProt Q9H422)
Method: as §1

IKKe = IKKe (Homo sapiens, UniProt Q14164)
Method: as §1

IRAK1 = IRAK1 (Homo sapiens, UniProt P51617)
Chain of IRAK1 (P51617 whole entry): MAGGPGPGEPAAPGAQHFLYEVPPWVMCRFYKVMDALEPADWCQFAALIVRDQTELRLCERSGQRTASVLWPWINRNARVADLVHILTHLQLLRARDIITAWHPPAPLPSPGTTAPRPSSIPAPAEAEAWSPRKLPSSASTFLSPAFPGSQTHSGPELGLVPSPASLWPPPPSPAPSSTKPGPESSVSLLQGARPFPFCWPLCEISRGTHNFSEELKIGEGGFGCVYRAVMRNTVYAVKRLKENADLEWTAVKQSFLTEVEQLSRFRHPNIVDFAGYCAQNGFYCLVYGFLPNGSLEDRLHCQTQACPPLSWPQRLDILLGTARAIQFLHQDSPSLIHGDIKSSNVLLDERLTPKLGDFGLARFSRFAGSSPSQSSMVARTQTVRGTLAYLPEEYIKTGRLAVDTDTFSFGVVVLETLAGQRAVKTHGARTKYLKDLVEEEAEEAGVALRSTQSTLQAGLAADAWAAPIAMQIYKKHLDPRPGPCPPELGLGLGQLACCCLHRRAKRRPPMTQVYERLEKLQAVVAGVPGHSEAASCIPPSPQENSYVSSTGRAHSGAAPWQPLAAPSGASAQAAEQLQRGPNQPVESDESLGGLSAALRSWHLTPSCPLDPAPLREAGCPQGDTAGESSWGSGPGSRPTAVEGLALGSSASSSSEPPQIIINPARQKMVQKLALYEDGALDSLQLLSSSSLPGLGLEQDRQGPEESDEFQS
Method: as §1

IRAK4 = IRAK4 (Homo sapiens, UniProt Q9NWZ3)
Method: as §1

IRR = IRR (Homo sapiens, UniProt P14616)
Method: as §1

MARK1 = MARK1 (Homo sapiens, UniProt Q9P0L2)
Method: as §1

MARK4 = MARK4 (Homo sapiens, UniProt Q96L34)
Method: as §1

MKK1 = MKK1 (Homo sapiens, UniProt Q02750)
Method: as §1

MKK2 = MKK2 (Homo sapiens, UniProt P36507)
Method: as §1

MNK2 = MNK2 (Homo sapiens, UniProt Q9HBH9)
Method: as §1

MST3 = MST3 (Homo sapiens, UniProt Q9Y6E0)
Chain of MST3 (Q9Y6E0 whole entry): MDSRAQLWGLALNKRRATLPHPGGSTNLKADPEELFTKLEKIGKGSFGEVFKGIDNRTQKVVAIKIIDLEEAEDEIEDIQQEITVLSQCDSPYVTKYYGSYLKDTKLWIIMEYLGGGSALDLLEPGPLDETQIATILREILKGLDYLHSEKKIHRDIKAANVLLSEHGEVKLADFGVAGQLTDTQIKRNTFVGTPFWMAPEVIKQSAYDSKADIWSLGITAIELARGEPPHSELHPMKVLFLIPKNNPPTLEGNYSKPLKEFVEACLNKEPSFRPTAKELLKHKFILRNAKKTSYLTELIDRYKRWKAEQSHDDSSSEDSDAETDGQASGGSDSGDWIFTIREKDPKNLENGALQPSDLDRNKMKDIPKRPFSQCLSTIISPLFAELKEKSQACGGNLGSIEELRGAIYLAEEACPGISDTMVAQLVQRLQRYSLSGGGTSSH
Method: as §1

NEK6 = NEK6 (Homo sapiens, UniProt Q9HC98)
Method: as §1

OSR1 = OSR1 (Homo sapiens, UniProt O95747)
Method: as §1

PAK6 = PAK6 (Homo sapiens, UniProt Q9NQU5)
Method: as §1

PDGFRA = PDGFRA (Homo sapiens, UniProt P16234)
Method: as §1

PIM3 = PIM3 (Homo sapiens, UniProt Q86V86)
Method: as §1

PKA = PKA (Homo sapiens, UniProt P17612)
Method: as §1

PKBb = PKBb (Homo sapiens, UniProt P31751)
Method: as §1

PRK2 = PRK2 (Homo sapiens, UniProt Q16513)
Method: as §1

RIPK2 = RIPK2 (Homo sapiens, UniProt O43353)
Method: as §1

RSK2 = RSK2 (Homo sapiens, UniProt P51812)
Method: as §1

S6K1 = S6K1 (Homo sapiens, UniProt P23443)
Method: as §1

SmMLCK = SmMLCK (Homo sapiens, UniProt Q15746)
Chain of SmMLCK (Q15746 923-1914): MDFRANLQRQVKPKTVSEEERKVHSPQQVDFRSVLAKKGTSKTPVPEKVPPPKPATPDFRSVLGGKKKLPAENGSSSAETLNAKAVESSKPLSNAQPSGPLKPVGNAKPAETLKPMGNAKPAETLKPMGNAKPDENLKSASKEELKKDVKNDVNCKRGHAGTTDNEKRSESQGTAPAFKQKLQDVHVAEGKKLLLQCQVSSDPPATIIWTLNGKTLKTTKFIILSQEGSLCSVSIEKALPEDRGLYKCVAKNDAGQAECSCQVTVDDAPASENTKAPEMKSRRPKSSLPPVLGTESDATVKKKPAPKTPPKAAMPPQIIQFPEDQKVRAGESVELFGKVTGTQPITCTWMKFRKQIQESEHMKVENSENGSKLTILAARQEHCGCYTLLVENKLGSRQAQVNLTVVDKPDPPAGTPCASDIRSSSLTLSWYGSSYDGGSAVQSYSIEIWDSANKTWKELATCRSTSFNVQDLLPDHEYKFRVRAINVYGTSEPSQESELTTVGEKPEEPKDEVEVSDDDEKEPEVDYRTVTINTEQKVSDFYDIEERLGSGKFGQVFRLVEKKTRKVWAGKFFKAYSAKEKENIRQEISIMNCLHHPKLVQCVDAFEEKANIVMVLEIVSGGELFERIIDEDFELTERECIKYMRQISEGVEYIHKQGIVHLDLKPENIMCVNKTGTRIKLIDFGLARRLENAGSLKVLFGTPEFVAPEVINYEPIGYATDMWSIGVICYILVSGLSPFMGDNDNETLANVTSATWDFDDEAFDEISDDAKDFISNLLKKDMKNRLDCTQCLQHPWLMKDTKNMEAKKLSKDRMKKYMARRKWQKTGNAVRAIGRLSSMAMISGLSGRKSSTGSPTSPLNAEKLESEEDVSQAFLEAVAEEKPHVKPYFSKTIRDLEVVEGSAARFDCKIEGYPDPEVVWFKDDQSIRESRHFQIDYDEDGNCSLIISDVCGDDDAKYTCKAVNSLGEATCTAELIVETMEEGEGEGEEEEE
Method: as §1

Src = Src (Homo sapiens, UniProt P12931)
Chain of Src (P12931 whole entry): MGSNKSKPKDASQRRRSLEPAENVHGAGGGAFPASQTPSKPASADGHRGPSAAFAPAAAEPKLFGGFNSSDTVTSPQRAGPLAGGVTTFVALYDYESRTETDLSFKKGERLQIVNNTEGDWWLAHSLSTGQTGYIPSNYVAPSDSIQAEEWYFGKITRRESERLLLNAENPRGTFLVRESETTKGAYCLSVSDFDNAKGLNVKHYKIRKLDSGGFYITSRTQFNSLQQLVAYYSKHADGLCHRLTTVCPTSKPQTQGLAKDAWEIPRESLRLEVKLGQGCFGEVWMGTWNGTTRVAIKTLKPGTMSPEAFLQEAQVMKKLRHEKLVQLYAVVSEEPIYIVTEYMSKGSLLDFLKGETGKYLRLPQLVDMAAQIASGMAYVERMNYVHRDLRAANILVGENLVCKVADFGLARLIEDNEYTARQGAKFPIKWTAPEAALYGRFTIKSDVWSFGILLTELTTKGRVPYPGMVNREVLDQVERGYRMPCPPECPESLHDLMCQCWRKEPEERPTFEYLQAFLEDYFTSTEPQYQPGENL
Method: as §1

TTK = TTK (Homo sapiens, UniProt P33981)
Method: as §1

TrkA = TrkA (Homo sapiens, UniProt P04629)
Chain of TrkA (P04629 33-796): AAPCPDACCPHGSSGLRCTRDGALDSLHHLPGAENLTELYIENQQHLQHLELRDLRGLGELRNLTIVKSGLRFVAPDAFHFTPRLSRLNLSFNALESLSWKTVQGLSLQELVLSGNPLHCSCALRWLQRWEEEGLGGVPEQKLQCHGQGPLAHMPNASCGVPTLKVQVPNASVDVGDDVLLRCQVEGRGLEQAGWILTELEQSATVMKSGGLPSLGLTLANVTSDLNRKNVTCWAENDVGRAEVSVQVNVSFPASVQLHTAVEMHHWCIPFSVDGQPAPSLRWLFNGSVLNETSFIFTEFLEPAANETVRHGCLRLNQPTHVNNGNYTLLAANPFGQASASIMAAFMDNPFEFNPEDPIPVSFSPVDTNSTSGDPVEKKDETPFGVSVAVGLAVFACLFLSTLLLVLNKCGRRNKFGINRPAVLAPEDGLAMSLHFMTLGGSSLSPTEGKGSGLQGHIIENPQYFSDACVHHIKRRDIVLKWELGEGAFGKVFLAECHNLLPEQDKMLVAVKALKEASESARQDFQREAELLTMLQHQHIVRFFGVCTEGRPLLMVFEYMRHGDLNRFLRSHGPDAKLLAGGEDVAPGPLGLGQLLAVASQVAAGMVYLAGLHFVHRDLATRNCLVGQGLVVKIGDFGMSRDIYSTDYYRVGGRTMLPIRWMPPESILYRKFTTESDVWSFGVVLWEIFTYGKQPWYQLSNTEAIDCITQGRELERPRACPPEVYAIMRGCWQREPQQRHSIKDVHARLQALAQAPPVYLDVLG
Method: as §1

ULK1 = ULK1 (Homo sapiens, UniProt O75385)
Method: as §1

ULK2 = ULK2 (Homo sapiens, UniProt Q8IYT8)
Method: as §1

p38d MAPK = p38d MAPK (Homo sapiens, UniProt O15264)
Method: as §1

Cc1nc2ccc3sc(NC(=O)c4ccc5ncsc5c4)nc3c2s1 [3A5, N-(2-methyl[1,3]thiazolo[5,4-e][1,3]benzothiazol-7-yl)-1,3-benzothiazole-6-carboxamide]
ABL activity in kinase profiling (ABL): 102 | BRK activity in kinase profiling (BRK): 97 | BTK activity in kinase profiling (BTK): 106 | CK1γ2 activity in kinase profiling (CK1γ2): 22 | CSK activity in kinase profiling (CSK): 93 | DAPK1 activity in kinase profiling (DAPK1): 73 | EPH-A4 activity in kinase profiling (EPH-A4): 120 | EPH-B1 activity in kinase profiling (EPH-B1): 101 | EPH-B3 activity in kinase profiling (EPH-B3): 89 | ERK1 activity in kinase profiling (ERK1): 102 | ERK2 activity in kinase profiling (ERK2): 109 | GSK3b activity in kinase profiling (GSK3b): 102 | HIPK1 activity in kinase profiling (HIPK1): 105 | HIPK2 activity in kinase profiling (HIPK2): 96 | HIPK3 activity in kinase profiling (HIPK3): 100 | IKKe activity in kinase profiling (IKKe): 107 | IRAK1 activity in kinase profiling (IRAK1): 88 | IRAK4 activity in kinase profiling (IRAK4): 46 | IRR activity in kinase profiling (IRR): 87 | MARK1 activity in kinase profiling (MARK1): 103 | MARK4 activity in kinase profiling (MARK4): 80 | MKK1 activity in kinase profiling (MKK1): 72 | MKK2 activity in kinase profiling (MKK2): 115 | MNK2 activity in kinase profiling (MNK2): 86 | MST3 activity in kinase profiling (MST3): 100 | NEK6 activity in kinase profiling (NEK6): 104 | OSR1 activity in kinase profiling (OSR1): 101 | PAK6 activity in kinase profiling (PAK6): 96 | PDGFRA activity in kinase profiling (PDGFRA): 91 | PIM3 activity in kinase profiling (PIM3): 88 | PKA activity in kinase profiling (PKA): 98 | activity at 1 µM (PKBb): 125% | PRK2 activity in kinase profiling (PRK2): 95 | RIPK2 activity in kinase profiling (RIPK2): 83 | RSK2 activity in kinase profiling (RSK2): 120 | S6K1 activity in kinase profiling (S6K1): 72 | SmMLCK activity in kinase profiling (SmMLCK): 50 | Src activity in kinase profiling (Src): 89 | TTK activity in kinase profiling (TTK): 56 | TrkA activity in kinase profiling (TrkA): 93 | ULK1 activity in kinase profiling (ULK1): 138 | ULK2 activity in kinase profiling (ULK2): 92 | p38d MAPK activity in kinase profiling (p38d MAPK): 105

CSc1nc2ccc3nc(NC(=O)c4ccco4)sc3c2s1 [5E4, N-[7-(methylsulfanyl)[1,3]thiazolo[4,5-g][1,3]benzothiazol-2-yl]-2-furamide]
ABL activity in kinase profiling (ABL): 61 | BRK activity in kinase profiling (BRK): 98 | BTK activity in kinase profiling (BTK): 105 | CK1γ2 activity in kinase profiling (CK1γ2): 88 | CSK activity in kinase profiling (CSK): 99 | DAPK1 activity in kinase profiling (DAPK1): 76 | EPH-A4 activity in kinase profiling (EPH-A4): 112 | EPH-B1 activity in kinase profiling (EPH-B1): 93 | EPH-B3 activity in kinase profiling (EPH-B3): 110 | ERK1 activity in kinase profiling (ERK1): 104 | ERK2 activity in kinase profiling (ERK2): 112 | GSK3b activity in kinase profiling (GSK3b): 84 | HIPK1 activity in kinase profiling (HIPK1): 25 | HIPK2 activity in kinase profiling (HIPK2): 19 | HIPK3 activity in kinase profiling (HIPK3): 50 | IKKe activity in kinase profiling (IKKe): 102 | IRAK1 activity in kinase profiling (IRAK1): 87 | IRAK4 activity in kinase profiling (IRAK4): 50 | IRR activity in kinase profiling (IRR): 92 | MARK1 activity in kinase profiling (MARK1): 107 | MARK4 activity in kinase profiling (MARK4): 87 | MKK1 activity in kinase profiling (MKK1): 85 | MKK2 activity in kinase profiling (MKK2): 121 | MNK2 activity in kinase profiling (MNK2): 88 | MST3 activity in kinase profiling (MST3): 99 | NEK6 activity in kinase profiling (NEK6): 91 | OSR1 activity in kinase profiling (OSR1): 111 | PAK6 activity in kinase profiling (PAK6): 104 | PDGFRA activity in kinase profiling (PDGFRA): 86 | PIM3 activity in kinase profiling (PIM3): 95 | PKA activity in kinase profiling (PKA): 97 | activity at 1 µM (PKBb): 121% | PRK2 activity in kinase profiling (PRK2): 88 | RIPK2 activity in kinase profiling (RIPK2): 34 | RSK2 activity in kinase profiling (RSK2): 100 | S6K1 activity in kinase profiling (S6K1): 80 | SmMLCK activity in kinase profiling (SmMLCK): 43 | Src activity in kinase profiling (Src): 79 | TTK activity in kinase profiling (TTK): 60 | TrkA activity in kinase profiling (TrkA): 90 | ULK1 activity in kinase profiling (ULK1): 127 | ULK2 activity in kinase profiling (ULK2): 81 | p38d MAPK activity in kinase profiling (p38d MAPK): 103

Source: paper PMC4730229, “Benzobisthiazoles Represent a Novel Scaffold for Kinase Inhibitors of CLK Family Members” (Biochemistry, 2015)
